Data from patent US9856218B2, “Inhibitors of PRMT5 and methods of their use” (Ohio State Innovation Foundation, priority 2013, dated 2018).

Experiments:
[1] = target: T1, recombinant human PRMT5/MEP50 enzyme (Homo sapiens, UniProt O14744); assay: Epigenase PRMT methyltransferase (type II-specific) activity/inhibition assay kit; type: biochemical; details: 25 ng recombinant human PRMT5/MEP50 per reaction; read-out: Inhibition of PRMT5 mediated H4R3 methylation (IC50)
T1 construct: purchased BPS Bioscience
T1 sequence (O14744 2-637 limits assumed): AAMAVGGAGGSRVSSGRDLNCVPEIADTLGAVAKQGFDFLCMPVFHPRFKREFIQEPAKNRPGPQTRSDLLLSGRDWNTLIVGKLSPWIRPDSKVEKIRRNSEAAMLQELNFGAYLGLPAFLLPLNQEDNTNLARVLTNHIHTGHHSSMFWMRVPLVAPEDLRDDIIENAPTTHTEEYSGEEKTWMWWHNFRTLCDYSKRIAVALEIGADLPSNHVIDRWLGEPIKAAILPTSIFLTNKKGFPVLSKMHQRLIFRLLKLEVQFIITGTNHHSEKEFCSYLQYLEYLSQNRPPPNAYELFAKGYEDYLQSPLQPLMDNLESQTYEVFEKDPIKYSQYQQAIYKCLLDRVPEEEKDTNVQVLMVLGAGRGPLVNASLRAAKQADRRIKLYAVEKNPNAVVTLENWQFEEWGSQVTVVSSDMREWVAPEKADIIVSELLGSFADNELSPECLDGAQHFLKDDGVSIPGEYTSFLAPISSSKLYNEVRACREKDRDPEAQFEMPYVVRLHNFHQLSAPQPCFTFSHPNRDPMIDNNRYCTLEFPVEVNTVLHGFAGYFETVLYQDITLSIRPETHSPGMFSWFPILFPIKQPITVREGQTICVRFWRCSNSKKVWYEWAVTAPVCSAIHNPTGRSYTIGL
T1 sequence (Q9BQA1 2-342 partner limits assumed): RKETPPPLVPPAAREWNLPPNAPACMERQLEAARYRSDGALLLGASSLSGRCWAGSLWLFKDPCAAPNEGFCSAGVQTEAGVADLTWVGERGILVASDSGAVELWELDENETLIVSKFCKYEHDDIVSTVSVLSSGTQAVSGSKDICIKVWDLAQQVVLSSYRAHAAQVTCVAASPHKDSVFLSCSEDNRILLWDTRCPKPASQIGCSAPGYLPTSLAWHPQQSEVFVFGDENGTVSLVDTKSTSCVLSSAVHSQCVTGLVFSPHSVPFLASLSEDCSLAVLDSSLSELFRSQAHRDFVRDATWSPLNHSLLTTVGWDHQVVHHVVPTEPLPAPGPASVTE
Method: The inhibition of PRMT5 mediated H4R3 methylation result was obtained with Epigenase™ PRMT methyltransferase (type II-specific) activity/inhibition assay kit. 25 ng recombinant human PRMT5/MEP50 enzyme (purchased from BPS Bioscience) was used in each reaction.

[2] = system: FLT3 RNA and protein in MV4-11, THP-1 cells and FLT3-ITD patient samples; assay: FLT3 RNA (qRT-PCR) and protein (western blotting) after PRMT5 inhibition; type: cell-based; details: MV4-11, THP-1, FLT3-ITD patient samples
Method: Whole cell lysates were prepared by suspending cell pellets in RIPA buffer for 20 min (1% NP-40, 0.1% SDS, 150 mM NaCl, 50 mM Tris, pH 8.0), then supplemented with 1× complete EDTA free protease inhibitor (Roche) and 1× PhosStop (Roche). Lysates were separated by 4-20% SDS-PAGE and transferred to PVDF membrane (GE Healthcare, Piscataway, N.J.). Membranes were blocked with 5% milk or BSA in 1×TBS with 0.1% Tween 20 for 1 hour at room temperature with shaking. […]
Total RNA was extracted using TriZol reagent (Invitrogen) and subjected to Reverse Transcription using SuperScript III reagents (Invitrogen). Quantitative Real-Time PCR was performed on resulting cDNA using commercially available TaqMan Gene Expression Assay primers and probes, and the 7900HT Fast Real-Time PCR System (Applied Biosystems). Mature microRNA levels were quantified using reverse transcription product made with TaqMan MicroRNA Reverse Transcription Kit (Life Technologies).
PRMT5 has been reported to interact with, and to be regulated via posttranslational phosphorylation by mutant constitutively active tyrosine kinase; JAK2V617F (Liu, F., et al. (2011) Cancer Cell 19, 283-294). […] To further confirm FLT3 downregulation following PRMT5 knockdown, kinase activity was measured by detecting phosphorylated STAT5 levels. […]

[3] = system: SP1 protein in AML cell lines (FLT3-ITD and FLT3-WT); assay: SP1 protein levels, Western blotting; type: cell-based
Method: Whole cell lysates were prepared by suspending cell pellets in RIPA buffer for 20 min (1% NP-40, 0.1% SDS, 150 mM NaCl, 50 mM Tris, pH 8.0), then supplemented with 1× complete EDTA free protease inhibitor (Roche) and 1× PhosStop (Roche). Lysates were separated by 4-20% SDS-PAGE and transferred to PVDF membrane (GE Healthcare, Piscataway, N.J.). Membranes were blocked with 5% milk or BSA in 1×TBS with 0.1% Tween 20 for 1 hour at room temperature with shaking. Primary antibodies for ACTIN, GAPDH and FLT3 (Santa Cruz Biotechnology, Santa Cruz Calif.), P65 (Cell signaling), PRMT5 and SP1 (Millipore), H4R3, H3R8, H3 and H4 (Abcam), were diluted 1:1000 or 1:2000 in 5% milk or BSA and incubated for 1-2 hr at room temperature. Membranes were washed using 1×TBS-T, incubated with HRP-conjugated secondary antibodies diluted in 1×TBS-T with 5% milk or BSA, washed, and developed using SuperSignal West Dura Chemiluminescent Substrate (Thermo Scientific). […]
A similar trend was documented in the in vivo murine model of PRMT5 overexpression generated by THP-1/PRMT5 engraftment, as a significant increase in SP1 levels was measured when compared to THP-1/EV control mice (FIG. 45). […]

[4] = In vivo pharmacokinetics, plasma concentration; design: species or system Mouse; details: mouse, in vivo
Excerpt: Pharmacokinetic data of compounds HLCL-7, HLCL-61, and HLCL-66 taken from an in vivo study is illustrated in Table 10. […]

[5] = MTD study, four mice each dose; type: in vivo; details: mouse, in vivo, ip
Method: Controlled shRNA depletion was evaluated in a murine lymphoma model (Eμ-BRD2 (Chung, J., et al. (2013) J. Biological Chemistry 288, 35534-35547)) and human xenograft model of glioblastoma (Yan, F., et al (2014) Cancer Research In Press). Referring to FIG. 62A, controlled expression of a PRMT5 shRNA (solid line) but not control shRNA (dashed line) leads to 100% survival of mice engrafted primary DLBCL tumor cells. […] The maximum tolerated dose (MTD, single dose) was identified at 50 mg/kg (see Table 11 below). A sub-toxic dose (25 mg/kg) was used to treat FcMCL mice. Control mice developed peripheral blood and lymph node tumor burden starting day 20 post-engraftment.

In the case of `CCn1c2ccccc2c2cc(CNCc3ccccc3OC)ccc21` [HLCL-61], the IC50 [1] is reported as 12 µM, the “wild-type or mutated FLT3 RNA and protein” value [2] is reported as “significant downregulation” and the SP1 protein levels [3] is reported as “significant knockdown of SP1 protein levels”. For the same molecule, the concentration at 0.08 h ([4]; ip, 25 mg/kg) was 3150 nM, the concentration at 0.17 h ([4]; ip, 25 mg/kg) was 2280 nM and the concentration at 0.33 h ([4]; ip, 25 mg/kg) was 2040 nM. The concentration at 0.5 h ([4]; ip, 25 mg/kg) was 1830 nM, the concentration at 1 h ([4]; ip, 25 mg/kg) was 1390 nM and the concentration at 2 h ([4]; ip, 25 mg/kg) was 1500 nM. For the same molecule, the concentration at 4 h ([4]; ip, 25 mg/kg) was 712 nM, the concentration at 6 h ([4]; ip, 25 mg/kg) was 696 nM and the concentration at 8 h ([4]; ip, 25 mg/kg) was 332 nM. The concentration at 24 h ([4]; ip, 25 mg/kg) was 1.4 nM, the concentration at 0.08 h ([4]; iv, 5 mg/kg) was 1220 nM and the concentration at 0.17 h ([4]; iv, 5 mg/kg) was 1610 nM. The concentration at 0.33 h ([4]; iv, 5 mg/kg) was 702 nM, the concentration at 0.5 h ([4]; iv, 5 mg/kg) was 994 nM and the concentration at 1 h ([4]; iv, 5 mg/kg) was 942 nM. The concentration at 2 h ([4]; iv, 5 mg/kg) was 525 nM, the concentration at 4 h ([4]; iv, 5 mg/kg) was 155 nM and the concentration at 6 h ([4]; iv, 5 mg/kg) was 94.4 nM. The concentration at 8 h ([4]; iv, 5 mg/kg) was 51.1 nM, the concentration at 24 h ([4]; iv, 5 mg/kg) was 6.76 nM and the “survival 24 hr after dosing” value ([5]; 5 mg/kg, 24 h) was “Alive 24 hr after”. The “condition within 1 hr after dosing (alive but slow moving)” value ([5]; 50 mg/kg) was “Alive within 1 hr after”, the “mice lethargic and slow moving 24 hr after dosing” value ([5]; 50 mg/kg, 24 h) was “after dosing, 1 out 4” and the “survival 24 hr after dosing” value ([5]; 50 mg/kg, 24 h) was “moving. Alive 24 hr”.
